Holding throughout (test): relative viability (nuclei count vs DMSO), 5 days (fraction); higher = more cells survive
Compound in test [1]: CN(c1ncccc1CNc1nc(Nc2ccc3c(c2)CC(=O)N3)ncc1C(F)(F)F)S(C)(=O)=O + CC1(C)CCC(c2ccc(Cl)cc2)=C(CN2CCN(c3ccc(C(=O)NS(=O)(=O)c4ccc(N[C@H](CCN5CCOCC5)CSc5ccccc5)c(S(=O)(=O)C(F)(F)F)c4)cc3)CC2)C1 [Navitoclax] (partner 0.5 µM)
A digest of the protocol:
(§1)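 A single step with final 0.05% Triton X-100, 1% formaldehyde and 1 ug/ml Hoechst fixed the cells and stained nuclei 5 days after treatment. Lung cancer cell lines in 1536-well plates had been treated by pin tool the day after seeding with one drug alone or a fixed anchor-drug dose plus five library-drug doses (not always all listed) in √10 steps, and nuclei were counted on 4× images. Relative viability is the ratio of nuclei in treated wells to nuclei in vehicle wells, taken as the median of duplicate plates.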

Compound in test [2]: CN(c1ncccc1CNc1nc(Nc2ccc3c(c2)CC(=O)N3)ncc1C(F)(F)F)S(C)(=O)=O + C[C@@H](Oc1cc(-c2cnn(C3CCNCC3)c2)cnc1N)c1c(Cl)ccc(F)c1Cl [Crizotinib] (partner 1 µM)
Summed up:
as §1

Compound in test [3]: CN(c1ncccc1CNc1nc(Nc2ccc3c(c2)CC(=O)N3)ncc1C(F)(F)F)S(C)(=O)=O + Cc1nc(Nc2ncc(C(=O)Nc3c(C)cccc3Cl)s2)cc(N2CCN(CCO)CC2)n1 [Dasatinib] (partner 0.075 µM)
A digest of the protocol: as §1

Compound in test [4]: CN(c1ncccc1CNc1nc(Nc2ccc3c(c2)CC(=O)N3)ncc1C(F)(F)F)S(C)(=O)=O + O=C(CCCCCCC(=O)Nc1ccccc1)NO [Vorinostat] (partner 1 µM)
A digest of the protocol: as §1

NCI-H1975: the relative viability in test [1] (first compound 0.01 µM) is 1.01; in test [1] (first compound 0.03162 µM), 1.12; in test [1] (first compound 0.1 µM) it was 1.11; in test [1] (first compound 0.3162 µM) it was 1.01; in test [1] (first compound 1 µM), 0.854; in test [2] (first compound 0.01 µM) it was 0.999. Moreover, the relative viability is 0.981 in test [2] (first compound 0.03162 µM); 0.911 in test [2] (first compound 0.1 µM); 0.96 in test [2] (first compound 0.3162 µM); 0.746 in test [2] (first compound 1 µM); 0.359 in test [3] (first compound 0.01 µM); 0.272 in test [3] (first compound 0.03162 µM). In addition, the relative viability in test [3] (first compound 0.1 µM) amounted to 0.28; in test [3] (first compound 0.3162 µM), 0.27; in test [3] (first compound 1 µM), 0.262; in test [4] (first compound 0.01 µM), 0.726; in test [4] (first compound 0.03162 µM), 0.688; in test [4] (first compound 0.1 µM), 0.666. Besides, the relative viability in test [4] (first compound 0.3162 µM) is 0.71; in test [4] (first compound 1 µM) it was 0.613.
In the case of UMC-11, the relative viability was 0.321 in test [1] (first compound 0.01 µM); 0.296 in test [1] (first compound 0.03162 µM); 0.313 in test [1] (first compound 0.1 µM); 0.297 in test [1] (first compound 0.3162 µM); 0.235 in test [1] (first compound 1 µM); 0.59 in test [2] (first compound 0.01 µM). In addition, the relative viability in test [2] (first compound 0.03162 µM) is 0.584; in test [2] (first compound 0.1 µM), 0.654; in test [2] (first compound 0.3162 µM), 0.476; in test [2] (first compound 1 µM) it was 0.298; in test [3] (first compound 0.01 µM) it was 0.449; in test [3] (first compound 0.03162 µM) it was 0.531. The relative viability is 0.41 in test [3] (first compound 0.1 µM); 0.426 in test [3] (first compound 0.3162 µM); 0.379 in test [3] (first compound 1 µM); 0.417 in test [4] (first compound 0.01 µM); 0.363 in test [4] (first compound 0.03162 µM); 0.314 in test [4] (first compound 0.1 µM). Further, the relative viability in test [4] (first compound 0.3162 µM) was determined as 0.331; in test [4] (first compound 1 µM) it was 0.229.
Regarding A-427, the relative viability in test [1] (first compound 0.01 µM) was determined as 0.999; in test [1] (first compound 0.03162 µM), 0.973; in test [1] (first compound 0.1 µM) it was 1.02; in test [1] (first compound 0.3162 µM), 0.973; in test [1] (first compound 1 µM) it was 0.945; in test [2] (first compound 0.01 µM), 0.916. For the same cell line, the relative viability in test [2] (first compound 0.03162 µM) was determined as 0.964; in test [2] (first compound 0.1 µM), 0.951; in test [2] (first compound 0.3162 µM), 0.783; in test [2] (first compound 1 µM), 0.725; in test [3] (first compound 0.01 µM), 0.628; in test [3] (first compound 0.03162 µM), 0.864. Also, the relative viability came to 0.713 in test [3] (first compound 0.1 µM); 0.823 in test [3] (first compound 0.3162 µM); 0.725 in test [3] (first compound 1 µM); 0.892 in test [4] (first compound 0.01 µM); 0.874 in test [4] (first compound 0.03162 µM); 0.878 in test [4] (first compound 0.1 µM). The relative viability is 0.903 in test [4] (first compound 0.3162 µM) and 0.859 in test [4] (first compound 1 µM).
LCLC-97TM1: the relative viability in test [1] (first compound 0.03162 µM) was determined as 0.394; in test [1] (first compound 0.1 µM), 0.25; in test [1] (first compound 0.3162 µM) it was 0.381; in test [1] (first compound 1 µM), 0.385; in test [2] (first compound 0.03162 µM), 0.434; in test [2] (first compound 0.1 µM), 0.416. Moreover, the relative viability in test [2] (first compound 0.3162 µM) is 0.224; in test [2] (first compound 1 µM), 0.181; in test [3] (first compound 0.01 µM), 0.727; in test [3] (first compound 0.03162 µM) it was 0.794; in test [3] (first compound 0.1 µM), 0.815; in test [3] (first compound 0.3162 µM) it was 0.773. Further, the relative viability in test [3] (first compound 1 µM) is 0.722; in test [4] (first compound 0.01 µM), 0.644; in test [4] (first compound 0.03162 µM), 0.82; in test [4] (first compound 0.1 µM) it was 0.609; in test [4] (first compound 0.3162 µM), 0.751; in test [4] (first compound 1 µM), 0.586.

The values are drawn from the supplement of paper PMC10307832.
